From patent US11116760B2 (Gilead Sciences, Inc., priority 2018, dated 2021)

Biological target: α4β7 integrin (Homo sapiens (Human), UniProt P13612+P26010)
Experiment: α4β7 Integrin Cell Capture Assay
Format: cell-based
[1] = Table 1, capture of α4β7 expressing RPM18866 cells on MadCAM-1 extracellular domain-coated plate
[2] = Table 2, capture of α4β7 expressing RPM18866 cells on MadCAM-1 extracellular domain-coated plate

Chain of α4β7 integrin (P13612 34-1032): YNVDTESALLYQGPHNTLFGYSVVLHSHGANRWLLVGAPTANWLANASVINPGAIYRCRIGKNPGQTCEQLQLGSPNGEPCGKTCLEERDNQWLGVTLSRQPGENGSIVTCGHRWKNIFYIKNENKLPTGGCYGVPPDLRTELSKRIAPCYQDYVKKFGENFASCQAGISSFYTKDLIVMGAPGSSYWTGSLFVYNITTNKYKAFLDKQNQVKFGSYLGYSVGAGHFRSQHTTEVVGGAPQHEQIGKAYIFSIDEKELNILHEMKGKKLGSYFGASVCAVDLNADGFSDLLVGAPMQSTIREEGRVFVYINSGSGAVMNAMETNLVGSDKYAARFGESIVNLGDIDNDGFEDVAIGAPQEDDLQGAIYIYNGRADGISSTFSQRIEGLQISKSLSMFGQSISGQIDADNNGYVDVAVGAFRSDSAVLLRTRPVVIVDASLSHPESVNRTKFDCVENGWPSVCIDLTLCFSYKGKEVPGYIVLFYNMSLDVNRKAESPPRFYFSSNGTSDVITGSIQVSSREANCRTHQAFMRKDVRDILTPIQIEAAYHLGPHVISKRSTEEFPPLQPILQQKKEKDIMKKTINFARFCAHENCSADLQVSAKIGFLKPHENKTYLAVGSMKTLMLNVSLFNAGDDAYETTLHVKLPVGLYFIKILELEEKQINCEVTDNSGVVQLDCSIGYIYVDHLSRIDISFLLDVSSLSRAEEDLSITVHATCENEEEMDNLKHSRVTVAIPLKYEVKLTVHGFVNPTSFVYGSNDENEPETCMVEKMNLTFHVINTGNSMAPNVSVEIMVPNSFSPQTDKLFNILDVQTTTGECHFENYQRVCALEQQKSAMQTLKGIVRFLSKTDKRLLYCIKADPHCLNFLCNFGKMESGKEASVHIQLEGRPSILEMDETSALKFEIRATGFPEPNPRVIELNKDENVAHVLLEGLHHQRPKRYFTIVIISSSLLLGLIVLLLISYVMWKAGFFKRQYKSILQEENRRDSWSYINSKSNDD
Chain of α4β7 integrin (P26010 20-798): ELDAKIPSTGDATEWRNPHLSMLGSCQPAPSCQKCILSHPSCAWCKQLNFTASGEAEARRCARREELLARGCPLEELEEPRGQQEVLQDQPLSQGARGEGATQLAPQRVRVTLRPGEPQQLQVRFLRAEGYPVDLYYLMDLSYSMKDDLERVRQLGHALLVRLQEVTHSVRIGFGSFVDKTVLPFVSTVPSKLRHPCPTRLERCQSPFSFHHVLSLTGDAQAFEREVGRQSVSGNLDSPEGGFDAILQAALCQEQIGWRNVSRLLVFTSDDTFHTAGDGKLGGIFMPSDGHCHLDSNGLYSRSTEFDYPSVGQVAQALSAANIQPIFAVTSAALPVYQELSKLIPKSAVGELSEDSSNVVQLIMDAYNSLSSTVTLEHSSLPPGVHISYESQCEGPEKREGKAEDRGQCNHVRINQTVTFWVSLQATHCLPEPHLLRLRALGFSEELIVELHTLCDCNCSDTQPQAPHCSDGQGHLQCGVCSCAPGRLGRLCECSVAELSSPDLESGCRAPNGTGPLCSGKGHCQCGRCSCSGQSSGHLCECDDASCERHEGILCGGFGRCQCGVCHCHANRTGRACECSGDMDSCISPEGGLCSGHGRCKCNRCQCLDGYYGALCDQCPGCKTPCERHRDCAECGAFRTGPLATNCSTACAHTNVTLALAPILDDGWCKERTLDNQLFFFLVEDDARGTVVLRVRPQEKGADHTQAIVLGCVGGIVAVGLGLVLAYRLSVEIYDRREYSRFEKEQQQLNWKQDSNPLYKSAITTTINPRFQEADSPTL

Row | Compound | EC50 [1] [nM] | EC50 [2] [nM] | further results
1 | CCCNc1cc(F)c(C(=O)N[C@@H](Cc2ccc(-c3c(C(F)(F)F)cc(C)n(C)c3=O)c3ncccc23)C(=O)O)c(F)c1 [Example 133, (S)-2-(2,6-difluoro-4-(propylamino)benzamido)-3-(8-(1,6-dimethyl-2-oxo-4-(trifluoromethyl)-1,2-dihydropyridin-3-yl)quinolin-5-yl)propanoic acid] | 3.2 | – | –
2 | Cn1c(=O)n(-c2ccc(C[C@H](NC(=O)c3c(F)cc(N4CCOC[C@@H]4C(F)(F)F)cc3F)C(=O)O)c3cccnc23)c(=O)c2ccc(F)cc21 [Example 423] | – | – | EC50 (RPMI8866 cells captured on MadCAM-1 extracellular domain-coated plate): 0.08 nM
3 | CC(=O)c1cc(F)c(C(=O)N[C@@H](Cc2ccc(-c3ccc(C#N)cc3Cl)c3ncccc23)C(=O)O)c(F)c1 [Example 241] | – | 80.1 | –

Further lines, with some results ahead:

Row | EC50 [1] [nM] | EC50 [2] [nM] | Compound | further results
4 | 0.5 | – | Cn1c(=O)c(-c2ccc(C[C@H](NC(=O)c3c(F)cc(N4CCOC[C@@H]4C(F)(F)F)cc3F)C(=O)O)c3cccnc23)cc2ccccc21 [Example 104, (S)-2-(2,6-difluoro-4-((R)-3-(trifluoromethyl)morpholino)benzamido)-3-(1-methyl-2-oxo-1,2-dihydro-[3,8′-biquinolin]-5′-yl)propanoic acid] | –
5 | – | 3.8 | Cc1cnc(-c2ccc(C[C@H](NC(=O)c3c(F)cc(N4CCOC[C@@H]4C(F)(F)F)cc3F)C(=O)O)c3cccnc23)c(C(F)(F)F)c1 [Example 260] | –
